Experimental data: patent publication US12492193B2, “Pyrazole derivatives for the treatment of cystic fibrosis” (Fondazione Istituto Italiano Di Tecnologia, priority 2017, dated 2025)

Target: T1, mutant CFTR (Homo sapiens, UniProt P13569, DEL508-508)
T1 construct: expressed in transfected cells
Assay: Fluorescence (HS-YFP) assay for CFTR activity, corrector assay
Type: cell-based
Conditions: CFBE41o- and FRT cells with stable expression of mutant CFTR, 24 h compound treatment
Experimental: Fluorescence Assay for CFTR Activity
Mutant CFTR activity was determined with the functional assay based on the halide-sensitive yellow fluorescent protein, HS-YFP (Galietta et al., FEBS Lett 499: 220-224, 2001). CFBE41o- and FRT cells with stable expression of mutant CFTR and HS-YFP were plated on clear-bottom 96-well black microplates (Code 3603, Corning Life Sciences) at a density of 50,000 cells/well and kept at 37° C. in 5% CO2 for 24 hours. For the corrector assay, cells were treated for further 24 hours with test compounds, vehicle (DMSO), or the positive control VX-809. After treatment, the culture medium was removed and cells in each well were stimulated for 30 min at 37° C. with 60 μL PBS (containing 137 mM NaCl, 2.7 mM KCl, 8.1 mM Na2HPO4, 1.5 mM KH2PO4, 1 mM CaCl2, and 0.5 mM MgCl2) plus forskolin (20 μM) and genistein (50 μM).
For determination of potentiator activity on G551D-CFTR or G1349D-CFTR, cells were directly stimulated with forskolin plus test compound without previous incubation at low temperature. At the time of assay, microplates carrying CFBE41o- or FRT cells were transferred to microplate readers (BMG Labtech) equipped with high-quality excitation (HQ500/20X: 500±10 nm) and emission (HQ535/30M: 535±15 nm) filters for YFP (Chroma Technology). The assay consisted of a continuous 14 s fluorescence reading with 2 s before and 12 s after injection of an iodide-containing solution (165 μL of a modified PBS containing I^− instead of Cl^−; final I^− concentration in the well: 100 mM). Data were normalized to the initial background-subtracted fluorescence. Enhanced CFTR activity, induced by correctors and/or potentiators, results in accelerated I^− influx that in turn causes faster HS-YFP quenching (Pedemonte et al., Mol Pharmacol 68:1736-1746, 2005; Pedemonte et al., J Clin Invest 115:2564-2571, […]). To determine fluorescence quenching rate associated with I^− influx, the […] 10 s of data for each well were fitted with an exponential function to extrapolate initial slope (dF/dt).
EC50 obtained are illustrated in table 1 wherein +: EC50>2 μM; ++: 1.0 μM<EC50<2 μM; +++: EC50<1 μM.

T1 sequence (P13569 with tags, fused parts or gaps DEL508-508): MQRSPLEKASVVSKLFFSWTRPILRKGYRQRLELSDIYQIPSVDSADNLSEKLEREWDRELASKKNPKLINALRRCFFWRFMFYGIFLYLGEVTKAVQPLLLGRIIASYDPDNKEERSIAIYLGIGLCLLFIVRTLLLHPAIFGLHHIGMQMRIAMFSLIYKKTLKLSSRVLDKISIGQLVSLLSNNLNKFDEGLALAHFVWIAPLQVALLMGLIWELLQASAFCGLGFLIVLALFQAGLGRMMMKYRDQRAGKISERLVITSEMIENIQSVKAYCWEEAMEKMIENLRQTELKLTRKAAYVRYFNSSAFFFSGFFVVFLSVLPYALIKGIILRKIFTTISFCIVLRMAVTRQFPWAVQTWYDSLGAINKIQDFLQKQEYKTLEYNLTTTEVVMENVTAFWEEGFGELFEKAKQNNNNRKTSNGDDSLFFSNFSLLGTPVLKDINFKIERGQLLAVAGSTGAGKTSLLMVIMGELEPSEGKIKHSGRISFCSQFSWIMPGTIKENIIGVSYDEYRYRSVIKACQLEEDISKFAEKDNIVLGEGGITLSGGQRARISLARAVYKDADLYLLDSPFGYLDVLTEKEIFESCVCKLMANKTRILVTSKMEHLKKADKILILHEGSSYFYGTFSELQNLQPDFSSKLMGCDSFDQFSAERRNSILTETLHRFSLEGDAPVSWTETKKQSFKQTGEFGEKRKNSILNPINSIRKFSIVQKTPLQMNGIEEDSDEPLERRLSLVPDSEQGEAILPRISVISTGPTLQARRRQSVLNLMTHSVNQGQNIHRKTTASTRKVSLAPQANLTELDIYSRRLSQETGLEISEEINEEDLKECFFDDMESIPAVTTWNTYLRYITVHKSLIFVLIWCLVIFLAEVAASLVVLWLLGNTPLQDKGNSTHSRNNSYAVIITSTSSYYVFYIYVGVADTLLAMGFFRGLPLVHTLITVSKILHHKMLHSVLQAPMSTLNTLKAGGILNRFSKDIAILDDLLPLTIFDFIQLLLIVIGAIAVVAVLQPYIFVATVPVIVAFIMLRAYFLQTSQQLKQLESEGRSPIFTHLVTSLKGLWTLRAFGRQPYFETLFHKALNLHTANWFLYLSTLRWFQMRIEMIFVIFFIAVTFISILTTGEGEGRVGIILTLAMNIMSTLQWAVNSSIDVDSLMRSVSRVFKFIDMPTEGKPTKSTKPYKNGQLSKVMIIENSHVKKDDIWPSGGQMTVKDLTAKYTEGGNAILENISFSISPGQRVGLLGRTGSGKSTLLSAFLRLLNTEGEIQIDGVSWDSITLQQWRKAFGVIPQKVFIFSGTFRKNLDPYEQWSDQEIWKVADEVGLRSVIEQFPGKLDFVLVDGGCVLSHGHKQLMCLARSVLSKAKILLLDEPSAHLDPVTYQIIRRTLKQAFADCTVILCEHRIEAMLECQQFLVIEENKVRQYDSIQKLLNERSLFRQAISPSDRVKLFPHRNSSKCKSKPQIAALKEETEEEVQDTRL

| SMILES | EC50 |
| --- | --- |
| Cc1nn(-c2cccc(C(=O)Nc3ccc4c(c3)OCCO4)c2)c(C)c1Cl [Int-002, 3-(4-Chloro-3,5-dimethyl-pyrazol-1-yl)-N-(2,3-dihydro-1,4-benzodioxin-6-yl)benzamide] | > 2000 nM |
| Cc1nn(-c2cccc(C(=O)Nc3ccc4c(c3)OC(F)(F)C(F)(F)O4)c2)c(C)c1Cl [Int-005, 3-(4-Chloro-3,5-dimethyl-pyrazol-1-yl)-N-(2,2,3,3-tetrafluoro-1,4-benzodioxin-6-yl)benzamide] | > 2000 nM |
| Cc1nn(-c2cccc(C(=O)Nc3ccc4c(c3)OC(F)(F)O4)c2)c(C)c1Cl [Int-006, 3-(4-Chloro-3,5-dimethyl-pyrazol-1-yl)-N-(2,2-difluoro-1,3-benzodioxol-5-yl)benzamide] | > 2000 nM |
| Cc1nn(-c2cccc(C(=O)Nc3ccc4c(c3)OCO4)c2)c(C)c1Cl [Int-012, N-(1,3-Benzodioxol-5-yl)-3-(4-chloro-3,5-dimethyl-pyrazol-1-yl)benzamide] | > 2000 nM |
| COc1ccc(NC(=O)c2cccc(-n3nc(C)c(Cl)c3C)c2)cc1OC [Int-013, 3-(4-Chloro-3,5-dimethyl-pyrazol-1-yl)-N-(3,4-dimethoxyphenyl)benzamide] | > 2000 nM |
| Cc1nn(-c2cccc(C(=O)Nc3ccc4c(c3)NCCO4)c2)c(C)c1Cl [Int-016, 3-(4-Chloro-3,5-dimethyl-pyrazol-1-yl)-N-(3,4-dihydro-2H-1,4-benzoxazin-6-yl)benzamide] | > 2000 nM |
| Cc1nn(-c2cccc(C(=O)Nc3ccc4c(c3)OCCN4)c2)c(C)c1Cl [Int-018, 3-(4-chloro-3,5-dimethyl-pyrazol-1-yl)-N-(3,4-dihydro-2H-1,4-benzoxazin-7-yl)benzamide] | > 2000 nM |
| Cc1nn(-c2cccc(C(=O)Nc3cccc4c3OC(F)(F)O4)c2)c(C)c1Cl [Int-022, 3-(4-Chloro-3,5-dimethyl-pyrazol-1-yl)-N-(2,2-difluoro-1,3-benzodioxol-4-yl)benzamide] | 1000 to 2000 nM |
| Cc1nn(-c2cccc(C(=O)Nc3ccc4c(c3)CCCC4)c2)c(C)c1Cl [Int-040] | > 2000 nM |
| Cc1cc2c(cc1NC(=O)c1cccc(-n3nc(C)c(Cl)c3C)c1)OCO2 [Int-041, 3-(4-Chloro-3,5-dimethyl-pyrazol-1-yl)-N-(6-methyl-1,3-benzodioxol-5-yl)benzamide] | > 2000 nM |
| Cc1nc2ccc(NC(=O)c3cccc(-n4nc(C)c(Cl)c4C)c3)cc2o1 [Int-045, 3-(4-Chloro-3,5-dimethyl-pyrazol-1-yl)-N-(2-methyl-1,3-benzoxazol-6-yl)benzamide] | > 2000 nM |
| Cc1nn(-c2cccc(C(=O)Nc3ccc4c(c3)COC4)c2)c(C)c1Cl [Int-051] | > 2000 nM |
| Cc1nn(-c2cccc(C(=O)Nc3ccc4c(c3)CCO4)c2)c(C)c1Cl [Int-052] | > 2000 nM |
| Cc1nn(-c2cccc(C(=O)Nc3ccc4oc(C5CC5)nc4c3)c2)c(C)c1Cl [Int-053, 3-(4-Chloro-3,5-dimethyl-pyrazol-1-yl)-N-(2-cyclopropyl-1,3-benzoxazol-5-yl)benzamide] | > 2000 nM |
| Cc1nn(-c2cccc(C(=O)Nc3ccc4oc(C(C)C)nc4c3)c2)c(C)c1Cl [Int-061, 3-(4-Chloro-3,5-dimethyl-pyrazol-1-yl)-N-(2-isopropyl-1,3-benzoxazol-5-yl)benzamide] | > 2000 nM |
| COc1nc2cc(NC(=O)c3cccc(-n4nc(C)c(Cl)c4C)c3)ccc2o1 [Int-063, 3-(4-Chloro-3,5-dimethyl-pyrazol-1-yl)-N-(2-methoxy-1,3-benzoxazol-5-yl)benzamide] | > 2000 nM |
| Cc1c(Cl)c(C(F)(F)F)nn1-c1cccc(C(=O)Nc2ccc3cn(C)nc3c2)c1 [Int-121, 3-[4-Chloro-5-methyl-3-(trifluoromethyl)pyrazol-1-yl]-N-(2-methylindazol-6-yl)benzamide] | > 2000 nM |
| Cc1nc2ccc(NC(=O)c3cccc(-n4nc(C(F)(F)F)c(Cl)c4C4CC4)c3)cc2o1 [Int-136, 3-[4-Chloro-5-cyclopropyl-3-(trifluoromethyl)pyrazol-1-yl]-N-(2-methyl-1,3-benzoxazol-6-yl)benzamide] | < 1000 nM |

Second part, the molecule after the results:

| EC50 | SMILES |
| --- | --- |
| < 1000 nM | CN(C(=O)c1cccc(-n2nc(C(F)(F)F)cc2OC2CCC(C(=O)O)CC2)c1)c1ccc2c(c1)OCO2 (mixture of isomers) [compound 215, 4-[2-[3-[1,3-benzodioxol-5-yl(methyl)carbamoyl]phenyl]-5-(trifluoromethyl)pyrazol-3-yl]oxycyclohexane carboxylic acid] |
| < 1000 nM | Cc1nn(-c2cccc(C(=O)N(C)c3ccc4c(c3)OCO4)c2)c([C@H](O)c2ccccc2)c1Cl (racemic) [compound 109, N-(1,3-benzodioxol-5-yl)-3-[4-chloro-5-[(rac)-hydroxy(phenyl)methyl]-3-methyl-pyrazol-1-yl]-N-methyl-benzamide] |
| > 2000 nM | Cc1nn(-c2cccc(C(=O)N(C)c3ccc4c(c3)OCO4)c2)c([C@@H](C)O)c1Cl (racemic) [compound 114, N-(1,3-benzodioxol-5-yl)-3-[4-chloro-5-[(rac)-1-hydroxyethyl]-3-methyl-pyrazol-1-yl]-N-methyl-benzamide] |
| < 1000 nM | CO[C@H](c1ccccc1)c1c(Cl)c(C)nn1-c1cccc(C(=O)N(C)c2ccc3c(c2)OCO3)c1 (racemic) [compound 117, N-(1,3-Benzodioxol-5-yl)-3-[4-chloro-5-[(rac)-methoxy (phenyl)methyl]-3-methyl-pyrazol-1-yl]-N-methyl-benzamide] |
| < 1000 nM | Cc1nc2ccc(NC(=O)c3cccc(-n4nc(C(F)(F)F)c(Cl)c4C)c3)cc2s1 [Int-148, 3-[4-Chloro-5-methyl-3-(trifluoromethyl)pyrazol-1-yl]-N-(2-methyl-1,3-benzothiazol-6-yl)benzamide] |
| < 1000 nM | Cc1nc2cc(F)c(NC(=O)c3cccc(-n4nc(C(F)(F)F)c(Cl)c4C)c3)cc2o1 [Int-153, 3-[4-Chloro-5-methyl-3-(trifluoromethyl)pyrazol-1-yl]-N-(5-fluoro-2-methyl-1,3-benzoxazol-6-yl)benzamide] |
| > 2000 nM | Cc1c(Cl)c(C(F)(F)F)nn1-c1cccc(C(=O)Nc2cc3c(cc2C=O)OCO3)c1 [Int-160, 3-[4-chloro-5-methyl-3-(trifluoromethyl)pyrazol-1-yl]-N-(6-formyl-1,3-benzodioxol-5-yl)benzamide] |
| < 1000 nM | Cc1c(Cl)c(C(F)(F)F)nn1-c1cccc(C(=O)Nc2cc3c(cc2CO)OCO3)c1 [Int-167, 3-[4-chloro-5-methyl-3-(trifluoromethyl)pyrazol-1-yl]-N-[6-(hydroxymethyl)-1,3-benzodioxol-5-yl]benzamide] |
| > 2000 nM | CC(C)(C)OC(=O)c1ccc(OCc2c(Cl)c(C(F)(F)F)nn2-c2cccc(C(=O)Nc3ccc4c(c3)OC(F)(F)O4)c2)cc1 [Int-172, Tert-butyl 4-[[4-chloro-2-[3-[(2,2-difluoro-1,3-benzodioxol-5-yl)carbamoyl]phenyl]-5-(trifluoromethyl)pyrazol-3-yl]methoxy]benzoate] |
| > 2000 nM | Cc1c(Cl)c(C(F)(F)F)nn1-c1cccc(C(=O)Nc2cc3c(cc2C(=O)O)OCO3)c1 [Int-178, 6-[[3-[4-chloro-5-methyl-3-(trifluoromethyl)pyrazol-1-yl]benzoyl]amino]-1,3-benzodioxole-5-carboxylic acid] |
| > 2000 nM | Cc1c(Cl)c(C(F)(F)F)nn1-c1cccc(C(=O)Nc2ccc3c(c2C=O)OCO3)c1 [Int-203, 3-[4-chloro-5-methyl-3-(trifluoromethyl)pyrazol-1-yl]-N-(4-formyl-1,3-benzodioxol-5-yl)benzamide] |
| > 2000 nM | Cc1nn(-c2cccc(C(=O)N(c3ccc4c(c3)OCCO4)C(C)C)c2)c(C)c1Cl [compound 003, 3-(4-Chloro-3,5-dimethyl-pyrazol-1-yl)-N-(2,3-dihydro-1,4-benzodioxin-6-yl)-N-isopropyl-benzamide] |
| < 1000 nM | CCN(C(=O)c1cccc(-n2nc(C)c(Cl)c2C)c1)c1ccc2c(c1)OCCO2 [compound 004, 3-(4-Chloro-3,5-dimethyl-pyrazol-1-yl)-N-(2,3-dihydro-1,4-benzodioxin-6-yl)-N-ethyl-benzamide] |
| > 2000 nM | Cc1nn(-c2cccc(C(=O)N(C)c3ccccc3)c2)c(C)c1Cl [compound 007, 3-(4-Chloro-3,5-dimethyl-pyrazol-1-yl)-N-methyl-N-phenyl-benzamide] |
| > 2000 nM | Cc1nn(-c2cccc(C(=O)N(C)c3ccc4c(c3)OC(F)(F)C(F)(F)O4)c2)c(C)c1Cl [compound 008, 3-(4-Chloro-3,5-dimethyl-pyrazol-1-yl)-N-methyl-N-(2,2,3,3-tetrafluoro-1,4-benzodioxin-6-yl)benzamide] |
